Source: PubChem BioAssay (NCI)
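Exposure lasted 48 hours, with cells grown in 96-well plates and compounds tested at five concentrations. The concentration for full growth arrest is given as TGI.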

Tests used:
Experiment in all cases: growth of human tumour cells (NCI), 48 h
SNB-78 CNS = system: SNB-78 CNS
HT29 colon = system: HT29 colon
SNB-75 CNS = system: SNB-75 CNS
SF-295 CNS = system: SF-295 CNS
SK-MEL-28 melanoma = system: SK-MEL-28 melanoma
SF-268 CNS = system: SF-268 CNS
HOP-62 NSCLC = system: HOP-62 NSCLC
XF 498 CNS = system: XF 498 CNS
IGROV1 ovarian = system: IGROV1 ovarian
SNB-19 CNS = system: SNB-19 CNS
DMS 114 small cell lung = system: DMS 114 small cell lung
786-0 renal = system: 786-0 renal
M19-MEL melanoma = system: M19-MEL melanoma
KM12 colon = system: KM12 colon
RXF 393 renal = system: RXF 393 renal
UACC-62 melanoma = system: UACC-62 melanoma
ACHN renal = system: ACHN renal
UO-31 renal = system: UO-31 renal
CCRF-CEM leukemia = system: CCRF-CEM leukemia
KM20L2 colon = system: KM20L2 colon
K-562 leukemia = system: K-562 leukemia
RPMI-8226 leukemia = system: RPMI-8226 leukemia
HCT-116 colon = system: HCT-116 colon
SN12C renal = system: SN12C renal
CAKI-1 renal = system: CAKI-1 renal
OVCAR-5 ovarian = system: OVCAR-5 ovarian
LXFL 529 NSCLC = system: LXFL 529 NSCLC
TK-10 renal = system: TK-10 renal
LOX IMVI melanoma = system: LOX IMVI melanoma
DLD-1 colon = system: DLD-1 colon
MOLT-4 leukemia = system: MOLT-4 leukemia
EKVX NSCLC = system: EKVX NSCLC
SW-620 colon = system: SW-620 colon
DMS 273 small cell lung = system: DMS 273 small cell lung
NCI-H522 lung = system: NCI-H522 lung
A549 NSCLC = system: A549 NSCLC
HOP-18 NSCLC = system: HOP-18 NSCLC
MALME-3M melanoma = system: MALME-3M melanoma
NCI-H226 lung = system: NCI-H226 lung
A498 renal = system: A498 renal
SK-MEL-5 melanoma = system: SK-MEL-5 melanoma
NCI-H460 lung = system: NCI-H460 lung
SK-MEL-2 melanoma = system: SK-MEL-2 melanoma
UACC-257 melanoma = system: UACC-257 melanoma
SK-OV-3 ovarian = system: SK-OV-3 ovarian
OVCAR-8 ovarian = system: OVCAR-8 ovarian
M14 melanoma = system: M14 melanoma
HOP-92 NSCLC = system: HOP-92 NSCLC
HCT-15 colon = system: HCT-15 colon
NCI-H23 lung = system: NCI-H23 lung
COLO 205 colon = system: COLO 205 colon
SF-539 CNS = system: SF-539 CNS
OVCAR-4 ovarian = system: OVCAR-4 ovarian
U251 CNS = system: U251 CNS
OVCAR-3 ovarian = system: OVCAR-3 ovarian
HL-60(TB) leukemia = system: HL-60(TB) leukemia

O=C(N/C(=C\c1ccc(/C=C(\NC(=O)c2ccccc2)c2nc3cc(Cl)ccc3[nH]2)cc1)c1nc2cc(Cl)ccc2[nH]1)c1ccccc1 was tested, and the TGI (SNB-78 CNS) was over 100 µM, the TGI (HT29 colon) was over 100 µM and the TGI (SNB-75 CNS) was over 100 µM. For the same molecule, the TGI (SF-295 CNS) was over 100 µM, the TGI (SK-MEL-28 melanoma) was 53.8 µM and the TGI (SF-268 CNS) was 73.5 µM. The TGI (HOP-62 NSCLC) was over 100 µM, the TGI (XF 498 CNS) was over 100 µM and the TGI (IGROV1 ovarian) was over 100 µM. It also gave a TGI (SNB-19 CNS) of over 100 µM, a TGI (DMS 114 small cell lung) of over 100 µM and a TGI (786-0 renal) of over 100 µM. For the same molecule, the TGI (M19-MEL melanoma) was over 100 µM, the TGI (KM12 colon) was 88.7 µM and the TGI (RXF 393 renal) was 85.3 µM. It also gave a TGI (UACC-62 melanoma) of 65 µM, a TGI (ACHN renal) of over 100 µM and a TGI (UO-31 renal) of over 100 µM. It also gave a TGI (CCRF-CEM leukemia) of over 100 µM, a TGI (KM20L2 colon) of 55.5 µM and a TGI (K-562 leukemia) of 71 µM. It also gave a TGI (RPMI-8226 leukemia) of 25.4 µM, a TGI (HCT-116 colon) of 66.2 µM and a TGI (SN12C renal) of over 100 µM. For the same molecule, the TGI (CAKI-1 renal) was over 100 µM, the TGI (OVCAR-5 ovarian) was over 100 µM and the TGI (LXFL 529 NSCLC) was over 100 µM. For the same molecule, the TGI (TK-10 renal) was 79 µM, the TGI (LOX IMVI melanoma) was over 100 µM and the TGI (DLD-1 colon) was over 100 µM. The TGI (MOLT-4 leukemia) was 39.8 µM, the TGI (EKVX NSCLC) was 91.9 µM and the TGI (SW-620 colon) was over 100 µM. It also gave a TGI (DMS 273 small cell lung) of 50.4 µM, a TGI (NCI-H522 lung) of 53.8 µM and a TGI (A549 NSCLC) of over 100 µM. The TGI (HOP-18 NSCLC) was over 100 µM, the TGI (MALME-3M melanoma) was over 100 µM and the TGI (NCI-H226 lung) was over 100 µM. It also gave a TGI (A498 renal) of over 100 µM, a TGI (SK-MEL-5 melanoma) of 47.8 µM and a TGI (NCI-H460 lung) of over 100 µM. It also gave a TGI (SK-MEL-2 melanoma) of 99.6 µM, a TGI (UACC-257 melanoma) of over 100 µM and a TGI (SK-OV-3 ovarian) of over 100 µM. It also gave a TGI (OVCAR-8 ovarian) of over 100 µM, a TGI (M14 melanoma) of over 100 µM and a TGI (HOP-92 NSCLC) of over 100 µM. The TGI (HCT-15 colon) was 76.1 µM, the TGI (NCI-H23 lung) was over 100 µM and the TGI (COLO 205 colon) was 51.3 µM. The TGI (SF-539 CNS) was 78.5 µM, the TGI (OVCAR-4 ovarian) was 87 µM and the TGI (U251 CNS) was over 100 µM. For the same molecule, the TGI (OVCAR-3 ovarian) was over 100 µM.
For CC(Oc1ccc(OCC2CCCCC2)cc1)C(=O)NCCO (stereo unspecified), the TGI (SNB-78 CNS) was over 100 µM, the TGI (HT29 colon) was over 100 µM and the TGI (SNB-75 CNS) was over 100 µM. The TGI (SF-295 CNS) was over 100 µM, the TGI (SK-MEL-28 melanoma) was over 100 µM and the TGI (SF-268 CNS) was over 100 µM. It also gave a TGI (IGROV1 ovarian) of over 100 µM, a TGI (SNB-19 CNS) of over 100 µM and a TGI (DMS 114 small cell lung) of over 100 µM. For the same molecule, the TGI (786-0 renal) was over 100 µM, the TGI (M19-MEL melanoma) was over 100 µM and the TGI (KM12 colon) was over 100 µM. The TGI (RXF 393 renal) was over 100 µM, the TGI (UACC-62 melanoma) was over 100 µM and the TGI (ACHN renal) was over 100 µM. The TGI (UO-31 renal) was over 100 µM, the TGI (CCRF-CEM leukemia) was over 100 µM and the TGI (K-562 leukemia) was over 100 µM. The TGI (HL-60(TB) leukemia) was over 100 µM, the TGI (HCT-116 colon) was over 100 µM and the TGI (SN12C renal) was over 100 µM. For the same molecule, the TGI (LXFL 529 NSCLC) was over 100 µM, the TGI (TK-10 renal) was over 100 µM and the TGI (LOX IMVI melanoma) was over 100 µM. It also gave a TGI (DLD-1 colon) of over 100 µM, a TGI (MOLT-4 leukemia) of over 100 µM and a TGI (DMS 273 small cell lung) of over 100 µM. For the same molecule, the TGI (NCI-H522 lung) was over 100 µM, the TGI (A549 NSCLC) was over 100 µM and the TGI (HOP-18 NSCLC) was over 100 µM. It also gave a TGI (MALME-3M melanoma) of over 100 µM, a TGI (NCI-H226 lung) of over 100 µM and a TGI (A498 renal) of over 100 µM. It also gave a TGI (SK-MEL-5 melanoma) of over 100 µM, a TGI (NCI-H460 lung) of over 100 µM and a TGI (SK-MEL-2 melanoma) of over 100 µM. It also gave a TGI (UACC-257 melanoma) of over 100 µM, a TGI (SK-OV-3 ovarian) of over 100 µM and a TGI (OVCAR-8 ovarian) of over 100 µM. The TGI (M14 melanoma) was over 100 µM, the TGI (HCT-15 colon) was over 100 µM and the TGI (NCI-H23 lung) was over 100 µM. The TGI (SF-539 CNS) was over 100 µM, the TGI (OVCAR-4 ovarian) was over 100 µM and the TGI (U251 CNS) was over 100 µM. The TGI (OVCAR-3 ovarian) was over 100 µM.
